Measurements reported in PubChem BioAssay (NCI).
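Interpolation was linear, between the two tested concentrations surrounding the appropriate level; five concentrations were tested over 48 hours in 96-well plates. Abbreviation: GI50, concentration required for 50% inhibition of growth. TGI marks complete inhibition of growth.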

Experiments:
Experiment in all cases: growth of human tumour cells (NCI), 48 h
RXF 393 renal = test system: RXF 393 renal
NCI/ADR-RES ovarian = test system: NCI/ADR-RES ovarian
KM12 colon = test system: KM12 colon
HCC-2998 colon = test system: HCC-2998 colon
CCRF-CEM leukemia = test system: CCRF-CEM leukemia
EKVX NSCLC = test system: EKVX NSCLC
MDA-MB-231 breast = test system: MDA-MB-231 breast
SNB-75 CNS = test system: SNB-75 CNS
UACC-257 melanoma = test system: UACC-257 melanoma
DU-145 prostate = test system: DU-145 prostate
TK-10 renal = test system: TK-10 renal
SK-OV-3 ovarian = test system: SK-OV-3 ovarian
UACC-62 melanoma = test system: UACC-62 melanoma
SK-MEL-2 melanoma = test system: SK-MEL-2 melanoma
UO-31 renal = test system: UO-31 renal
A498 renal = test system: A498 renal
M14 melanoma = test system: M14 melanoma
SW-620 colon = test system: SW-620 colon
CAKI-1 renal = test system: CAKI-1 renal
SN12C renal = test system: SN12C renal
NCI-H226 lung = test system: NCI-H226 lung
OVCAR-3 ovarian = test system: OVCAR-3 ovarian
OVCAR-5 ovarian = test system: OVCAR-5 ovarian
SK-MEL-28 melanoma = test system: SK-MEL-28 melanoma
NCI-H23 lung = test system: NCI-H23 lung
SK-MEL-5 melanoma = test system: SK-MEL-5 melanoma
BT-549 breast = test system: BT-549 breast
HOP-92 NSCLC = test system: HOP-92 NSCLC
HL-60(TB) leukemia = test system: HL-60(TB) leukemia
ACHN renal = test system: ACHN renal
MDA-MB-435 = test system: MDA-MB-435
SF-539 CNS = test system: SF-539 CNS
SF-295 CNS = test system: SF-295 CNS
HCT-15 colon = test system: HCT-15 colon
RPMI-8226 leukemia = test system: RPMI-8226 leukemia
HCT-116 colon = test system: HCT-116 colon
NCI-H460 lung = test system: NCI-H460 lung

`Cc1[nH]c(C(=O)Nc2ccccc2OCc2cccc(C(=O)NC3CCNC3)c2)c(Cl)c1Cl` (centres undefined) was tested, and the GI50 (RXF 393 renal) was 2.07 µM, the TGI (RXF 393 renal) was 4.9 µM and the GI50 (NCI/ADR-RES ovarian) was > 100 µM. The TGI (NCI/ADR-RES ovarian) was > 100 µM, the GI50 (KM12 colon) was 1.94 µM and the TGI (KM12 colon) was 3.69 µM. The GI50 (HCC-2998 colon) was 1.91 µM, the TGI (HCC-2998 colon) was 3.55 µM and the GI50 (CCRF-CEM leukemia) was 1.91 µM. The TGI (CCRF-CEM leukemia) was 4.46 µM, the GI50 (EKVX NSCLC) was 1.95 µM and the TGI (EKVX NSCLC) was 4.64 µM. It also gave a GI50 (MDA-MB-231 breast) of 1.88 µM, a TGI (MDA-MB-231 breast) of 3.59 µM and a GI50 (SNB-75 CNS) of 1.56 µM. For the same molecule, the TGI (SNB-75 CNS) was 4.95 µM, the GI50 (UACC-257 melanoma) was 5.75 µM and the TGI (UACC-257 melanoma) was 31.1 µM. For the same molecule, the GI50 (DU-145 prostate) was 1.88 µM, the TGI (DU-145 prostate) was 3.37 µM and the GI50 (TK-10 renal) was 2.86 µM. For the same molecule, the TGI (TK-10 renal) was 7.19 µM, the GI50 (SK-OV-3 ovarian) was 23.6 µM and the TGI (SK-OV-3 ovarian) was 47.3 µM. The GI50 (UACC-62 melanoma) was 1.67 µM, the TGI (UACC-62 melanoma) was 3.32 µM and the GI50 (SK-MEL-2 melanoma) was 19 µM. For the same molecule, the TGI (SK-MEL-2 melanoma) was 57.1 µM, the GI50 (UO-31 renal) was 15.4 µM and the TGI (UO-31 renal) was 51.1 µM. It also gave a GI50 (A498 renal) of 12.6 µM, a TGI (A498 renal) of 26.7 µM and a GI50 (M14 melanoma) of 1.75 µM. It also gave a TGI (M14 melanoma) of 3.4 µM, a GI50 (SW-620 colon) of 1.86 µM and a TGI (SW-620 colon) of 3.54 µM. The GI50 (CAKI-1 renal) was 2.05 µM, the TGI (CAKI-1 renal) was 5.1 µM and the GI50 (SN12C renal) was 11 µM. For the same molecule, the TGI (SN12C renal) was 27.7 µM, the GI50 (NCI-H226 lung) was 15.3 µM and the TGI (NCI-H226 lung) was 47.3 µM. It also gave a GI50 (OVCAR-3 ovarian) of 1.89 µM, a TGI (OVCAR-3 ovarian) of 3.44 µM and a GI50 (OVCAR-5 ovarian) of 1.76 µM. The TGI (OVCAR-5 ovarian) was 3.24 µM, the GI50 (SK-MEL-28 melanoma) was 1.86 µM and the TGI (SK-MEL-28 melanoma) was 3.43 µM. The GI50 (NCI-H23 lung) was 1.91 µM, the TGI (NCI-H23 lung) was 3.89 µM and the GI50 (SK-MEL-5 melanoma) was 5.25 µM. The TGI (SK-MEL-5 melanoma) was 19.2 µM, the GI50 (BT-549 breast) was 5.15 µM and the TGI (BT-549 breast) was 25.1 µM. For the same molecule, the GI50 (HOP-92 NSCLC) was 3.57 µM, the TGI (HOP-92 NSCLC) was 20.5 µM and the GI50 (HL-60(TB) leukemia) was 2.21 µM. It also gave a TGI (HL-60(TB) leukemia) of 5.11 µM, a GI50 (ACHN renal) of 3.17 µM and a TGI (ACHN renal) of 11.5 µM. The GI50 (MDA-MB-435) was 1.79 µM, the TGI (MDA-MB-435) was 3.33 µM and the GI50 (SF-539 CNS) was 1.74 µM. It also gave a TGI (SF-539 CNS) of 3.26 µM, a GI50 (SF-295 CNS) of 4.52 µM and a TGI (SF-295 CNS) of 38.9 µM. The GI50 (HCT-15 colon) was 4.87 µM, the TGI (HCT-15 colon) was 22.7 µM and the GI50 (RPMI-8226 leukemia) was 2.31 µM. For the same molecule, the TGI (RPMI-8226 leukemia) was 5.07 µM, the GI50 (HCT-116 colon) was 1.85 µM and the TGI (HCT-116 colon) was 3.67 µM. It also gave a GI50 (NCI-H460 lung) of 1.9 µM and a TGI (NCI-H460 lung) of 3.58 µM.
